Measured values taken from patent US6093409A (Societe L'Oreal S.A., priority 1996, dated 2000).

Assay: "Hp-squalene" anti(singlet oxygen ^1 O2) test
Type: biochemical
Details: 0.03% solutions

SMILES | % INHIBITION [%] | percentage of inhibition compared with melatonin and the other reference singlet-oxygen inhibitors (comparison in words)
CC1=C(/C=C/C(C)=C/C=C/C(C)=C/C=C/C=C(C)/C=C/C=C(C)/C=C/C2=C(C)C(=O)[C@@H](O)CC2(C)C)C(C)(C)C[C@H](O)C1=O [Astaxanthin] | 34 | –
O=c1c(O)c(-c2ccc(O)c(O)c2)oc2cc(O)cc(O)c12 [Quercetin] | 72 | –
C[C@@H]1O[C@@H](OC[C@H]2O[C@@H](Oc3c(-c4ccc(O)c(O)c4)oc4cc(O)cc(O)c4c3=O)[C@H](O)[C@@H](O)[C@@H]2O)[C@H](O)[C@H](O)[C@H]1O [Rutin] | 51 | –
CC1=C(/C=C/C(C)=C/C=C/C(C)=C/C=C/C=C(C)/C=C/C=C(C)/C=C/C2=C(C)C(=O)CCC2(C)C)C(C)(C)CCC1=O [Cantaxanthin] | 67 | –
COc1cc2c(CCNC(C)=O)c[nH]c2cc1O [6-Hydroxymelatonin] | ~78 | higher than that obtained for melatonin and the other reference singlet-oxygen inhibitors
CC1=C(/C=C/C(C)=C/C=C/C(C)=C/C=C/C=C(C)/C=C/C=C(C)/C=C/C2=C(C)CCCC2(C)C)C(C)(C)CCC1 [β-Carotene] | 62 | –
